Columns and labels:
[1] = system: Colletotrichum Lagenarium; test: Action against Colletotrichum lagenarium on cucumbers; format: in vivo; details: cucumber plants, spray mixture 0.002%, infected 2 days later, evaluation 8 days after infection
Procedure: Action Against Colletotrichum Lagenarium on Cucumbers After a growth period of 2 weeks, cucumber plants are sprayed with an aqueous spray mixture (concentration 0.002%) prepared from a wettable powder formulation of the test compound and infected 2 days later with a spore suspension (1.5×10^5 spores/ml) of the fungus and incubated for 36 hours at 23° C. and high humidity. Incubation is then continued at normal humidity and c. 22° C. Evaluation of the fungal infestation is made 8 days after infection.

Venturia Naegualis = test: Residual-protective action against Venturia inaequalis on apples; format: in vivo; details: apple cuttings, spray mixture 0.02% a.i., infected 24 hours later, evaluation 12 days after infection
Procedure: Residual-protective Action Against Venturia Naegualis on Apples
Apple cuttings with fresh shoots 10 to 20 cm long are sprayed to drip point with a spray mixture (0.02% a.i.) prepared from a wettable powder formulation of the test compound. The plants are infected 24 hours later with a conidia suspension of the fungus. The plants are then incubated for 5 days at 90 to 100% relative humidity and stood in a greenhouse for a further […] at 20 to 24° C. Evaluation of the fungal infestation is made 12 days after infection. Compounds of Tables 1-4 show good activity, preferably the compounds 1.72, 1.81, 1.152, 1.160, 2.11, 3.6, 4.3, 4.5, 4.6, 4.27, 4.29, 4.30, 4.36, 4.38, 4.39, 4.43, 4.45, 4.62, 4.80 and 4.111.

| Compound | melting point | activity against Colletotrichum lagenarium (fungal infestation) [1] | residual-protective activity against Venturia on apples (fungal infestation) (Venturia Naegualis) |
| --- | --- | --- | --- |
| CCCCc1nc2ccc(Cl)cc2c(=NC)n1CCC [Compound 1.72] | 58 to 60 °C | good to excellent activity | good activity |
| CCCOC1=Nc2ccc(Cl)cc2C(=CN)N1CCC [Compound 1.74, (6-chloro-2-propoxy-3-propyl-3H-quinazolin-4-ylidene)methylamine] | 53 to 55 °C |  |  |
| CCCCc1nc2ccc(Br)cc2c(=NC)n1CCC [Compound 1.81] | 61 to 64 °C | good to excellent activity | good activity |
| CCCN=c1c2cc(Cl)ccc2nc(OCCC)n1CCC [Compound 1.152, (6-Chloro-2-propoxy-3-propyl-3H-quinazoline-4-ylidene)propylamine] | 50 to 51 °C | good to excellent activity | good activity |
| CCCCN=c1c2cc(Cl)ccc2nc(OCCC)n1CCCC [Compound 1.160] |  | good to excellent activity | good activity |
| CCCOc1nc2ncc(Br)cc2c(=N)n1CCC [Compound 2.11] |  | good to excellent activity | good activity |
| CCCOc1nc2c(Br)csc2c(=NC)n1CCC [Compound 3.6] |  | good to excellent activity | good activity |
| CCCCc1nc2sccc2c(=N)n1CCC [Compound 4.3] |  | good to excellent activity | good activity |
| CCCOc1nc2sccc2c(=N)n1CCC [Compound 4.5] | 61 to 63 °C | good to excellent activity | good activity |
| CCCCn1c(OCCC)nc2sccc2c1=N [Compound 4.6] |  | good to excellent activity | good activity |
| CCCCc1nc2sc(Cl)cc2c(=NC)n1CCC [Compound 4.27, (2-Butyl-6-chloro-3-propyl-3H-thieno [2,3-d]pyrimidine-4-ylidene)methylamine] |  | good to excellent activity | good activity |
| CCCCn1c(OCCC)nc2sc(Cl)cc2c1=NC [Compound 4.30] |  | good to excellent activity | good activity |
| CCCOc1nc2sc(Br)cc2c(=NC)n1CCC [Compound 4.38, (6-Bromo-3-propyl-2-propoxy-3H-thieno[2,3-d]pyrimidine-4-ylidene)methylamine] |  | good to excellent activity | good activity |
| CCCCn1c(OCCC)nc2sc(Br)cc2c1=NC [Compound 4.39] |  | good to excellent activity | good activity |
| CCCCc1nc2sc(Cl)cc2c(=NCC)n1CCC [Compound 4.43] |  | good to excellent activity | good activity |
| CCCOc1nc2sc(Cl)cc2c(=NCC)n1CCC [Compound 4.45] |  | good to excellent activity | good activity |
| C=CCN=c1c2cc(Cl)sc2nc(OCCC)n1CCC [Compound 4.62] |  | good to excellent activity | good activity |
| C#CCN=c1c2cc(Cl)sc2nc(OCCC)n1CCC [Compound 4.80] |  | good to excellent activity | good activity |
| CCCOc1nc2sc(Cl)cc2c(=NCl)n1CCC [Compound 4.111] |  | good to excellent activity | good activity |
| CCCCc1nc2sc(Cl)cc2c(=NC(=O)OC)n1CCCC [Compound 4.119, (6-chloro-2-butyl-3-butyl-3H-thieno[2,3-d]pyrimidine-4-ylidene)carbamic acid methylester] | 103 to 104 °C |  |  |
| CCCOc1nc2sc(Cl)cc2c(=NC(C)=O)n1CCC [Compound 4.137, N-(6-chloro-2-propoxy-3-propyl-3H-thieno[2,3-d]pyrimidine-4-ylidene)acetamide] | 101 to 103 °C |  |  |
| CCCCc1nc2sc(Cl)cc2c(=NC(C)=O)n1CCC [Compound 4.139, N-(6-chloro-2-butyl-3-propyl-3H-thieno[2,3-d]pyrimidine-4-ylidene)acetamide] | 98 to 99 °C |  |  |
